According to US7056903B2, “Carboxylic acid derivatives as IP antagonists” (Syntex (U.S.A.) LLC, priority 2000, dated 2006):

SMILES | melting point
O=C(N[C@H](Cc1ccccc1)C(=O)O)OCc1cc2cc(-c3ccccc3)ccc2o1 [Compound 19, (R)-2-(5-Phenyl-benzofuran-2-ylmethoxycarbonylamino)-3-phenyl-propionic acid] | 154 to 156 °C
O=C(N[C@H](Cc1ccccc1)C(=O)O)OCc1ccc(Cn2ccc3ccccc32)cc1 [Compound 153, (R)-2-(4-indol-1-ylmethyl-benzyloxycarbonylamino)-3-phenyl-propionic acid] | 122 to 125 °C
Cn1c(-c2ccccc2)nc2cc(COC(=O)N[C@H](Cc3ccccc3)C(=O)O)ccc21 [Compound 130, (R)-2-(1-Methyl-2-phenyl-1H-benzoimidazol-5-ylmethoxycarbonylamino)-3-phenyl-propionic acid] | 176 to 177 °C
O=C(N[C@H](Cc1ccccc1)C(=O)O)OCc1ccc(COc2cccc(NC(=O)c3ccccc3)c2)cc1 [Compound 81, (R)-3-phenyl-2-(4-{3-[(1-phenyl-methanoyl)-amino]-phenoxymethyl}-benzyloxycarbonylamino)-propionic acid] | 161.9 to 163.7 °C
O=C(N[C@H](Cc1cccc(F)c1)C(=O)O)OCc1cc2cc(-c3ccccc3)ccc2o1 [Compound 108, (R)-3-(3-fluoro-phenyl)-2-(5-phenyl-benzofuran-2-ylmethoxycarbonylamino)-propionic acid] | 141.4 to 142.3 °C
Cc1ccc(-c2ccc3oc(COC(=O)N[C@H](Cc4ccccc4)C(=O)O)cc3c2)cc1 (hydrate or solvate) [Compound 95, (R)-2-[5-(4-methyl-phenyl)-benzofuran-2-ylmethoxycarbonylamino]-3-phenyl-propionic acid] | 151 to 154 °C
Cn1cc(C[C@@H](NC(=O)OCc2ccc(-c3ccccc3)cc2)C(=O)O)c2ccccc21 [Compound 145, (R)-2-(biphenyl-4-ylmethoxycarbonylamino)-3-(1-methyl-1H-indol-3-yl)-propionic acid] | 156.7 to 157.2 °C
O=C(N[C@H](Cc1ccccc1)C(=O)O)OCc1ccc(COc2cccc3ncccc23)cc1 [Compound 152, (R)-3-phenyl-2-[4-(quinolin-5-yloxymethyl)-benzyloxycarbonylamino]-propionic acid] | 189.4 to 189.8 °C
O=C(O)CC(NC(=O)OCc1cc2cc(-c3ccccc3)ccc2o1)c1ccccc1 (stereo not shown) [Compound 109, 3-phenyl-3-(5-phenyl-benzofuran-2-ylmethoxycarbonylamino)-propionic acid] | 168 to 169.8 °C
O=C(NC(Cc1cccc(NS(=O)(=O)c2ccccc2)c1)C(=O)O)OCc1ccc(COc2ccccc2)cc1 (stereo not shown) [Compound 83, 3-(3-benzenesulfonylamino-phenyl)-2-(4-phenoxymethyl-benzyloxycarbonylamino)-propionic acid] | 129.7 to 130.3 °C
O=C(N[C@H](Cc1ccc(F)cc1)C(=O)O)OCc1cc2cc(-c3ccc4c(c3)OCO4)ccc2o1 [Compound 116, (R)-2-(5-benzo[1,3]dioxol-5-yl-benzofuran-2-ylmethoxycarbonylamino)-3-(4-fluoro-phenyl)-propionic acid] | 132 to 134.5 °C
O=C(N[C@H](Cc1ccc(F)cc1)C(=O)O)OCc1cc2cc(-c3cc(F)cc(F)c3)ccc2o1 [Compound 123, (R)-2-[5-(3,5-difluoro-phenyl)-benzofuran-2-ylmethoxycarbonylamino]-3-(4-fluoro-phenyl)-propionic acid] | 174 to 175 °C
O=C(N[C@@H](Cc1ccccc1)C(=O)O)OCCc1cc2cc(-c3ccccc3)ccc2o1 [Compound 128, (S)-3-phenyl-2-[2-(5-phenyl-benzofuran-2-yl)-ethoxycarbonylamino]-propionic acid] | 170.9 to 171.9 °C
O=C(NC(Cc1cccnc1)C(=O)O)OCc1cc2cc(-c3ccccc3)ccc2o1 (stereo not shown) [Compound 164, 2-(5-Phenyl-benzofuran-2-ylmethoxycarbonylamino)-3-pyridin-3-yl-propionic acid] | 164 to 169 °C
O=C(Cc1ccc(OCc2ccccc2)cc1)NC(Cc1ccccc1)C(=O)O (stereo not shown) [Compound 84, 2-(4-benzyloxybenzylcarbonylamino)-3-phenyl-propionic acid] | 118.3 to 119.9 °C
O=C(N[C@H](Cc1ccc(Cl)cc1)C(=O)O)OCc1cc2cc(-c3ccccc3)ccc2o1 [Compound 106, (R)-3-(4-chloro-phenyl)-2-(5-phenyl-benzofuran-2-ylmethoxycarbonylamino)-propionic acid] | 151 to 157 °C
O=C(NC(Cc1ccccc1)C(=O)O)OCc1ccc(/C=C/c2ccccc2)cc1 (stereo not shown) [Compound 133, 3-phenyl-2-[4-((E)-styryl)-benzyloxycarbonylamino]-propionic acid] | 165 to 168.5 °C
O=C(N[C@H](Cc1ccc(F)cc1)C(=O)O)OCc1cc2cc(-c3cc(F)ccc3F)ccc2o1 [Compound 121, (R)-2-[5-(2,5-difluoro-phenyl)-benzofuran-2-ylmethoxycarbonylamino]-3-(4-fluoro-phenyl)-propionic acid] | 98 to 101 °C
O=C(N[C@H](Cc1ccccc1)C(=O)O)OCc1cc2cc(Cc3ccccc3)ccc2o1 [Compound 134, (R)-2-(5-benzyl-benzofuran-2-ylmethoxycarbonylamino)-3-phenyl-propionic acid] | 159.4 to 160.1 °C

SMILES | melting point
Cn1cc(C[C@@H](NC(=O)OCc2ccc(-c3ccccc3)cc2)C(=O)O)c2ccccc2c1=O [Compound 149, (R)-2-(biphenyl-4-ylmethoxycarbonylamino)-3-(2-methyl-1-oxo-1,2-dihydro-isoquinolin-4-yl)-propionic acid] | 215 to 217 °C
O=C(N[C@H](Cc1ccc(F)cc1)C(=O)O)OCc1cc2cc(-c3ccccc3)ccc2o1 (hydrate or solvate) [Compound 105, (R)-3-(4-fluoro-phenyl)-2-(5-phenylbenzofuran-2-ylmethoxycarbonylamino)-propionic acid] | 131.5 to 135 °C
O=C(NC(Cc1ccccc1)C(=O)O)OCc1coc2ccc(-c3ccccc3)cc12 (stereo not shown) [Compound 172, 2-(5-Phenyl-benzofuran-3-ylmethoxycarbonylamino)-3-phenyl-propionic acid] | 177.6 to 178.6 °C
O=C(O)C(Cc1ccccc1)NC(=O)C(O)c1ccc(OCc2cccc3[nH]ccc23)cc1 (stereo not shown) [Compound 88, 2-{2-hydroxy-2-[4-(1H-indol-4-ylmethoxy)-phenyl]-ethanoylamino}-3-phenyl-propionic acid] | 178 to 181 °C
O=C(N[C@H](Cc1ccccc1)C(=O)O)OCc1ccc2oc(Cc3ccccc3)cc2c1 [Compound 139, (R)-2-(2-benzyl-benzofuran-5-ylmethoxycarbonylamino)-3-phenyl-propionic acid] | 108.8 to 110.5 °C
O=C(NC(Cc1ccccc1)C(=O)O)OCc1ccc(COc2ccc(Cl)cc2)cc1 (stereo not shown) [Compound 155, 2-[4-(4-chloro-phenoxymethyl)-benzyloxycarbonylamino]-3-phenyl-propionic acid] | 122 to 123.1 °C
COc1ccccc1OCc1ccc(COC(=O)NC(Cc2ccccc2)C(=O)O)cc1 (stereo not shown) [Compound 74, 2-[4-(2-methoxy-phenoxymethyl)-benzyloxycarbonylamino]-3-phenyl propionic acid] | 92.6 to 93.5 °C
CS(=O)(=O)Nc1cccc(OCc2ccc(COC(=O)N[C@H](Cc3ccccc3)C(=O)O)cc2)c1 [Compound 77, (R)-2-[4-(3-methanesulfonylamino-phenoxymethyl)-benzyloxycarbonylamino]-3-phenyl-propionic acid] | 161.9 to 164.9 °C
O=C(NC(Cc1cncnc1)C(=O)O)OCc1cc2cc(-c3ccccc3)ccc2o1 (stereo not shown) [Compound 173, 2-(5-phenyl-benzofuran-2-ylmethoxycarbonylamino)-3-pyrimidin-5-yl-propionic acid] | 181.4 to 184.5 °C
O=C(N[C@H](Cc1ccccc1)C(=O)O)OCc1ccc2nc(-c3ccccc3)ccc2c1 [Compound 131, (R)-3-phenyl-2-(2-phenyl-quinolin-6-ylmethoxycarbonylamino)-propionic acid] | 190 to 191 °C
O=C(NC(Cc1ccccc1)C(=O)O)OCc1cc2cc(-c3cncnc3)ccc2o1 (stereo not shown) [Compound 175, 3-phenyl-2-(5-pyrimidin-5-yl-benzofuran-2-ylmethoxycarbonylamino)-propionic acid] | 192 to 192.5 °C
O=C(N[C@H](Cc1ccccc1)C(=O)O)OCc1cc2cc(-c3ccc4c(c3)OCO4)ccc2o1 (hydrate or solvate) [Compound 97, (R)-2-(5-benzo[1,3]dioxol-5-yl-benzofuran-2-ylmethoxycarbonylamino)-3-phenyl-propionic acid] | 125 to 131 °C
O=C(NC(Cc1ccccc1)C(=O)O)OCc1ccc(COc2cccc(F)c2)cc1 (stereo not shown) [Compound 76, 2-[4-(3-fluoro-phenoxymethyl)-benzyloxycarbonylamino]-3-phenyl-propionic acid] | 107.9 to 110 °C
O=C(N[C@H](Cc1ccc(F)cc1)C(=O)O)OCc1ccc2oc(-c3ccc(F)cc3)cc2c1 [Compound 140, (R)-3-(4-fluoro-phenyl)-2-[2-(4-fluoro-phenyl)-benzofuran-5-ylmethoxycarbonylamino]-propionic acid] | 201 to 204 °C
O=C(N[C@H](Cc1ccccc1)C(=O)O)OCc1ccc(OCCOc2ccccc2)cc1 [Compound 89, (R)-2-[4-(2-phenoxy-ethoxy)-benzyloxycarbonylamino]-3-phenyl-propionic acid] | 130 to 131.3 °C
CC(C)n1cc(CC(NC(=O)OCc2ccc(-c3ccccc3)cc2)C(=O)O)c2ccccc21 (stereo not shown) [Compound 148, 2-(biphenyl-4-ylmethoxycarbonylamino)-3-(1-isopropyl-1H-indol-3-yl)-propionic acid] | 143.1 to 144.8 °C
O=C(N[C@H](Cc1ccccc1)C(=O)O)OCc1ccc2oc(-c3cccc4[nH]ccc34)nc2c1 [Compound 161, (R)-2-[2-(1H-indol-4-yl)-benzoxazol-5-ylmethoxycarbonylamino]-3-phenyl-propionic acid] | 187 to 189 °C
O=C(NC(Cc1ccccc1)C(=O)O)OCc1ccc(CCOc2ccccc2)cc1 (stereo not shown) [Compound 73, 2-[4-(2-Phenoxy-ethyl)-benzyloxycarbonylamino]-3-phenyl-propionic acid] | 150.2 to 152.4 °C
